Measured values taken from the NIST ThermoML archive (doi:10.1021/acs.jced.6b00273).
Numbers after ± are expanded uncertainties.

Test: mn = molality of the nth substance listed, in mol/kg
Conditions: 101.33 kPa, Liquid; for viscosity: Capillary tube (Ostwald / Ubbelohde) method; for mass density: Vibrating tube method

Cn1c(=O)c2[nH]cnc2n(C)c1=O [3,7-dihydro-1,3-dimethyl-1H-purine-2,6-dione] + O
Conditions | mass density, 288.15 K [kg/m3] | mass density, 298.15 K [kg/m3] | mass density, 308.15 K [kg/m3] | mass density, 318.15 K [kg/m3] | viscosity, 288.15 K [mPa·s] | viscosity, 298.15 K [mPa·s] | viscosity, 308.15 K [mPa·s] | viscosity, 318.15 K [mPa·s]
m1 = 0.00208 | 999.241 ± 8 | 997.153 ± 8 | 994.165 ± 8 | 990.343 ± 8 | – | – | – | –
m1 = 0.00213 | – | – | – | – | 1.139 ± 0.025 | 0.891 ± 0.025 | 0.719 ± 0.024 | 0.597 ± 0.024
m1 = 0.00284 | – | – | – | – | 1.139 ± 0.025 | 0.892 ± 0.025 | 0.72 ± 0.024 | 0.597 ± 0.024
m1 = 0.00285 | 999.283 ± 8 | 997.192 ± 8 | 994.204 ± 8 | 990.379 ± 8 | – | – | – | –
m1 = 0.00378 | 999.333 ± 8 | 997.239 ± 8 | 994.25 ± 8 | 990.423 ± 8 | – | – | – | –
m1 = 0.00394 | – | – | – | – | 1.14 ± 0.025 | 0.892 ± 0.025 | 0.72 ± 0.024 | 0.598 ± 0.024
m1 = 0.00479 | 999.388 ± 8 | 997.291 ± 8 | 994.3 ± 8 | 990.472 ± 8 | – | – | – | –
m1 = 0.00519 | – | – | – | – | 1.14 ± 0.025 | 0.892 ± 0.025 | 0.721 ± 0.024 | 0.598 ± 0.024
m1 = 0.00578 | 999.443 ± 8 | 997.341 ± 8 | 994.35 ± 8 | 990.519 ± 8 | – | – | – | –
m1 = 0.00617 | – | – | – | – | 1.141 ± 0.025 | 0.893 ± 0.025 | 0.722 ± 0.024 | 0.599 ± 0.024
m1 = 0.00689 | – | – | – | – | 1.141 ± 0.025 | 0.893 ± 0.025 | 0.722 ± 0.024 | 0.599 ± 0.024
m1 = 0.00699 | 999.509 ± 8 | 997.404 ± 8 | 994.41 ± 8 | 990.578 ± 8 | – | – | – | –
m1 = 0.00776 | 999.551 ± 8 | 997.443 ± 8 | 994.448 ± 8 | 990.614 ± 8 | – | – | – | –
m1 = 0.00819 | – | – | – | – | 1.142 ± 0.025 | 0.894 ± 0.025 | 0.723 ± 0.024 | 0.599 ± 0.024
m1 = 0.00921 | – | – | – | – | 1.142 ± 0.025 | 0.895 ± 0.025 | 0.723 ± 0.024 | 0.6 ± 0.024
m1 = 0.00934 | 999.638 ± 8 | 997.526 ± 8 | 994.528 ± 8 | 990.691 ± 8 | – | – | – | –
m1 = 0.00986 | 999.667 ± 8 | 997.554 ± 8 | 994.554 ± 8 | 990.716 ± 8 | – | – | – | –

[Cl-].[Na+] [sodium chloride] + O
Conditions | mass density, m1 = 0.1 [kg/m3] | mass density, m1 = 0.25 [kg/m3] | mass density, m1 = 0.5 [kg/m3] | mass density, m1 = 0.75 [kg/m3] | mass density, m1 = 1 [kg/m3] | viscosity, m1 = 0.1 [mPa·s] | viscosity, m1 = 0.25 [mPa·s] | viscosity, m1 = 0.5 [mPa·s] | viscosity, m1 = 0.75 [mPa·s] | viscosity, m1 = 1 [mPa·s]
288.15 K | 1003.33 ± 8 | 1009.78 ± 8 | – | 1029.45 ± 8 | 1039.16 ± 8 | 1.15 ± 0.025 | 1.16 ± 0.025 | 1.178 ± 0.025 | 1.214 ± 0.025 | 1.254 ± 0.025
298.15 K | 1001.12 ± 8 | 1007.29 ± 8 | – | 1026.12 ± 8 | 1036.18 ± 8 | 0.901 ± 0.025 | 0.91 ± 0.025 | 0.932 ± 0.025 | 0.959 ± 0.025 | 0.991 ± 0.025
308.15 K | 998.046 ± 8 | 1003.48 ± 8 | – | 1023.12 ± 8 | 1032.47 ± 8 | 0.728 ± 0.024 | 0.74 ± 0.024 | 0.756 ± 0.024 | 0.78 ± 0.024 | 0.812 ± 0.024
318.15 K | 994.175 ± 8 | 999.875 ± 8 | 1009.78 ± 8 | 1018.94 ± 8 | 1028.31 ± 8 | 0.605 ± 0.024 | 0.61 ± 0.024 | 0.63 ± 0.024 | 0.65 ± 0.024 | 0.676 ± 0.024
